From publication PMC9792171, “Design and synthesis of new thiazolidinone/uracil derivatives as antiproliferative agents targeting EGFR and/or BRAF^V600E” (Frontiers in Chemistry, 2022)

Tests used:
[1] = test system: four human cancer cell lines (A-549, MCF-7, Panc-1, HT-29); assay: Antiproliferative MTT assay, average of four cancer cell lines (GI50); assay type: cell-based; conditions: for IC50: Homo sapiens, average of A-549, MCF-7, Panc-1, HT-29
Method: Using the MTT assay ([Abdelrahman et al., 2017]; [El-Sherief et al., 2018]) and doxorubicin as the reference drug, 3a-f and 5a-l were tested for antiproliferative activity against four human cancer cell lines: Panc-1 (pancreas cancer cell line), MCF-7 (breast cancer cell line), HT-29 (colon cancer cell line), and A-549 (epithelial cancer cell line). […]
(§1) To explore the antiproliferative potential of compounds MTT assay was performed according to previously reported procedure (El-Sherief, H.A.M., et al., 2018; Abdelrahman, M. H., et al., 2017) using different cell lines to explore the antiproliferative potential of compounds propidium iodide fluorescence assay was performed using different cell lines. To calculate the total nuclear DNA, a fluorescent dye (propidium iodide, PI) is used which can attach to the DNA, thus offering a quick and precise technique. PI cannot pass through the cell membrane and its signal intensity can be considered as directly proportional to quantity of cellular DNA. Cells whose cell membranes are damaged or have changed permeability are counted as dead ones. The assay was performed by seeding the cells of different cell lines at a density of 3000-7500 cells/well (in 200µl medium) in culture plates followed by incubation for 24h at 37 °C in humidified 5% CO2/95% air atmospheric conditions. The medium was removed; the compounds were added to the plates at 10 µM concentrations (in 0.1% DMSO) in triplicates, followed by incubation for 48 h. DMSO (0.1%) was used as control. After incubation, medium was removed followed by the addition of PI (25 µl, 50µg/mL in water/medium) to each well of the plates. At -80 °C, the plates were allowed to freeze for 24 h, followed by thawing at 25 °C. A fluorometer (Polar-Star BMG Tech) was used to record the readings at excitation and emission wavelengths of 530 and 620 nm for each well. The percentage cytotoxicity of compounds was calculated using the following formula: […]

[2] = test system: MCF-7 (breast cancer cell line); assay: Antiproliferative MTT assay, MCF-7; assay type: cell-based; conditions: Homo sapiens, MCF7; MCF-7, MTT; read-out: Antiproliferative activity IC50 ± SEM (nM) MCF-7
Method: (§2) Using the MTT assay ([Abdelrahman et al., 2017]; [El-Sherief et al., 2018]) and doxorubicin as the reference drug, 3a-f and 5a-l were tested for antiproliferative activity against four human cancer cell lines: Panc-1 (pancreas cancer cell line), MCF-7 (breast cancer cell line), HT-29 (colon cancer cell line), and A-549 (epithelial cancer cell line).
as §1

[3] = test system: A-549 (epithelial cancer cell line); assay: Antiproliferative MTT assay, A-549; assay type: cell-based; conditions: Homo sapiens, A549; A-549, MTT; read-out: Antiproliferative activity IC50 ± SEM (nM) A-549
Method: as §2, §1

[4] = test system: Panc-1 (pancreas cancer cell line); assay: Antiproliferative MTT assay, Panc-1; assay type: cell-based; conditions: Homo sapiens; Panc-1, MTT; read-out: Antiproliferative activity IC50 ± SEM (nM) Panc-1
Method: as §2, §1

[5] = test system: HT-29 (colon cancer cell line); assay: Antiproliferative MTT assay, HT-29; assay type: cell-based; conditions: Homo sapiens; HT-29, MTT; read-out: Antiproliferative activity IC50 ± SEM (nM) HT-29
Method: as §2, §1

[6] = Cell viability assay (MTT), MCF-10A; assay type: cell-based; conditions: human, MCF-10A mammary gland epithelial cells, MCF-10A cells, incubated 4 days
Method: To test the viability of new compounds, the human mammary gland epithelial (MCF-10A) cell line was used ([Youssif et al., 2019]; [Mahmoud et al., 2022]). MCF-10A cells were incubated with compounds 3a-f and 5a-l for 4 days before being tested for viability using the MTT assay.
MTT assay was carried out to study the effect of compounds on mammary epithelial cells (MCF-10A) (Youssif, B. G. M. et al., 2019; Mahmoud, M. A., et al., 2022). The medium in which cells were propagated contained Dulbecco's modified Eagle's medium (DMEM)/ Ham's F-12 medium (1:1) supplemented with epidermal growth factor (20 ng/mL), hydrocortisone (500 ng/mL), insulin (10 μg/mL), 2 mM glutamine and 10% foetal calf serum. After every 2-3 days, the cells were passaged using trypsin ethylenediamine tetra acetic acid (EDTA). The cells were seeded at a density of 10^4 cells mL^-1 in flat-bottomed culture plates containing 96 wells each. After 24 h, medium was removed from the plates and the compounds in (in 0.1% DMSO) were added (in 200 μL medium to yield a final concentration of 0.1% v/v) to the wells of plates. A single compound was designated with four wells followed by incubation of plates for 96h at 37°C. After incubation, medium was removed completely from the plates followed by addition of MTT (0.4 mg/mL in medium) to each well and subsequent incubation of plates for 3h. MTT (along with the medium) was removed and DMSO (150μL) was added to each well of the culture plates, followed by vortexing and subsequent measurement of absorbance (at 540 nm) using microplate reader. The data are shown as percentage inhibition of proliferation in comparison with controls containing 0.1% DMSO.

EGFR = target: T1, EGFR (Homo sapiens, UniProt P00533); set-up: method as in Aziz et al., 2021; conditions: ref Aziz et al., 2021; cited from earlier work
T1 construct: EGFR cytoplasmic domain (EGFR-CD, amino acids 645–1186); His6 (N); made in house; host or cells: Sf-9 insect cells (baculovirus; pBlueBacHis2B and pFASTBacHTc)
T1 sequence (P00533 669-1210): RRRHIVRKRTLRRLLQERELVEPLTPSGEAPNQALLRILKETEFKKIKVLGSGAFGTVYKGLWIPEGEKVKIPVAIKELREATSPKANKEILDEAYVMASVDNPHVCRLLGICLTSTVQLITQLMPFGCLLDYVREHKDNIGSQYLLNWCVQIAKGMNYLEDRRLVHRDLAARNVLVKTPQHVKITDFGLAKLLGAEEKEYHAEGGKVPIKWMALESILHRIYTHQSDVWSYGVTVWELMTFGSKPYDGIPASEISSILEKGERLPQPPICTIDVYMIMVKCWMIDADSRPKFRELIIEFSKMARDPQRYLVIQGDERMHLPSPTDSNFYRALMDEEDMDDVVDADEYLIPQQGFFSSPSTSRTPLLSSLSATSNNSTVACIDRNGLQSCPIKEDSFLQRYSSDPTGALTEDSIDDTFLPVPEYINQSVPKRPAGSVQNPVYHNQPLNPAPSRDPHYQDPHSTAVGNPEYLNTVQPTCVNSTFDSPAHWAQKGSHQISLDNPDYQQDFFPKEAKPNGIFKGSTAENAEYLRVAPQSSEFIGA

[7] = test system: lung cancer (A549) cell line; set-up: method as in Aziz et al., 2021; conditions: ref Aziz et al., 2021; read-out: IC50 against lung cancer (A549) cell line; cited from earlier work
[8] = test system: human lung carcinoma cell lines; set-up: method as in Xiong et al., 2008; conditions: panel of human lung carcinoma cell lines; ref Xiong et al., 2008; read-out: IC50, inhibition of cell proliferation; cited from earlier work

Compound | melting point | IC50 [1] | IC50 [2] | IC50 [3] | IC50 [4] | IC50 [5] | viability at 4 days, 50 µM [6] | fold less potent than compound 5j (GI50) ([1]; ratio of GI50 values) | IC50 (EGFR) | IC50 [7] | IC50 [8]
O=c1[nH]cc(NC(=S)Nc2ccccc2)c(=O)[nH]1 [Compound 3a, 1-(2,4-Dioxo-1,2,3,4-tetrahydropyrimidin-5-yl)-3-phenylthiourea] | 340 to 342 °C | 8800 nM | 8500 ± 800 nM | 8900 ± 800 nM | 8800 ± 800 nM | 9100 ± 800 nM | 86% | – | – | – | –
Cc1ccc(NC(=S)Nc2c[nH]c(=O)[nH]c2=O)cc1 [Compound 3b, 1-(2,4-Dioxo-1,2,3,4-tetrahydropyrimidin-5-yl)-3-(p-tolyl)thiourea] | 338 to 340 °C | 3800 nM | 3600 ± 300 nM | 3700 ± 300 nM | 4100 ± 300 nM | 3900 ± 300 nM | 87% | – | – | – | –
O=c1[nH]cc(NC(=S)NCc2ccccc2)c(=O)[nH]1 [Compound 3d, 1-Benzyl-3-(2,4-dioxo-1,2,3,4-tetrahydropyrimidin-5-yl)thiourea] | 350 to 352 °C (dec.) | 4150 nM | 3900 ± 400 nM | 4100 ± 400 nM | 4300 ± 400 nM | 4300 ± 400 nM | 91% | – | – | – | –
CNC(=S)Nc1c[nH]c(=O)[nH]c1=O [Compound 3e, 1-(2,4-Dioxo-1,2,3,4-tetrahydropyrimidin-5-yl)-3-methylthiourea] | 332 to 334 °C | 10000 nM | 9600 ± 800 nM | 9700 ± 800 nM | 9800 ± 800 nM | 10800 ± 900 nM | 89% | – | – | – | –
C=CCNC(=S)Nc1c[nH]c(=O)[nH]c1=O [Compound 3f, 1-Allyl-3-(2,4-dioxo-1,2,3,4-tetrahydropyrimidin-5-yl)thiourea] | 348 to 350 °C (dec.) | 3900 nM | 3700 ± 300 nM | 3800 ± 300 nM | 3900 ± 300 nM | 4100 ± 300 nM | 89% | – | – | – | –
CCOC(=O)/C=C1\S/C(=N\c2c[nH]c(=O)[nH]c2=O)N(c2ccccc2)C1=O [Compound 5a, (Z)-Ethyl-2-((Z)-2-((2,4-dioxo-1,2,3,4-tetrahydropyrimidin-5-yl)imino)-4-oxo-3-phenyl-thiazolidin-5-ylidene)acetate] | 320 to 322 °C | 3450 nM | 3100 ± 300 nM | 3500 ± 300 nM | 3300 ± 300 nM | 3900 ± 300 nM | 91% | – | – | – | –
CCOC(=O)/C=C1\S/C(=N\c2c[nH]c(=O)[nH]c2=O)N(Cc2ccccc2)C1=O [Compound 5d, (Z)-Ethyl-2-((Z)-3-benzyl-2-((2,4-dioxo-1,2,3,4-tetrahydropyrimidin-5-yl)imino)-4-oxo-thiazolidin-5-ylidene)acetate] | – | 5150 nM | 4700 ± 400 nM | 4900 ± 500 nM | 5500 ± 500 nM | 5500 ± 500 nM | 86% | approximately 5 fold | – | – | –
CCOC(=O)/C=C1\S/C(=N\c2c[nH]c(=O)[nH]c2=O)N(C)C1=O [Compound 5e, (Z)-Ethyl-2-((Z)-2-((2,4-dioxo-1,2,3,4-tetrahydropyrimidin-5-yl)imino)-3-methyl-4-oxo-thiazolidin-5-ylidene)acetate] | 302 to 304 °C | 7100 nM | 6700 ± 700 nM | 7200 ± 600 nM | 7300 ± 700 nM | 7200 ± 700 nM | 86% | – | – | – | –
C=CCN1C(=O)/C(=C/C(=O)OCC)S/C1=N\c1c[nH]c(=O)[nH]c1=O [Compound 5f, (Z)-Ethyl-2-((Z)-3-allyl-2-((2,4-dioxo-1,2,3,4-tetrahydropyrimidin-5-yl)imino)-4-oxo-thiazolidin-5-ylidene)acetate] | 310 to 312 °C | 8500 nM | 7900 ± 700 nM | 8200 ± 700 nM | 8800 ± 700 nM | 8900 ± 700 nM | 89% | – | – | – | –
COC(=O)/C=C1\S/C(=N\c2c[nH]c(=O)[nH]c2=O)N(c2ccccc2)C1=O [Compound 5g, (Z)-Methyl-2-((Z)-2-((2,4-dioxo-1,2,3,4-tetrahydropyrimidin-5-yl)imino)-4-oxo-3-phenyl-thiazolidin-5-ylidene)acetate] | 302 to 304 °C | 2500 nM | 2200 ± 200 nM | 2700 ± 200 nM | 2900 ± 200 nM | 2200 ± 200 nM | 87% | – | – | – | –
COC(=O)/C=C1\S/C(=N\c2c[nH]c(=O)[nH]c2=O)N(C)C1=O [Compound 5k, (Z)-Methyl-2-((Z)-2-((2,4-dioxo-1,2,3,4-tetrahydropyrimidin-5-yl)imino)-3-methyl-4-oxothiazolidin-5-ylidene)acetate] | 300 to 302 °C | 5700 nM | 5100 ± 500 nM | 5700 ± 600 nM | 5900 ± 500 nM | 6200 ± 600 nM | 89% | – | – | – | –
C=CCN1C(=O)/C(=C/C(=O)OC)S/C1=N\c1c[nH]c(=O)[nH]c1=O [Compound 5l, (Z)-Methyl-2-((Z)-3-allyl-2-((2,4-dioxo-1,2,3,4-tetrahydropyrimidin-5-yl)imino)-4-oxothiazolidin-5-ylidene)acetate] | 314 to 316 °C | 6400 nM | 6500 ± 600 nM | 6000 ± 600 nM | 6400 ± 600 nM | 6600 ± 600 nM | 86% | – | – | – | –
O=C1N=C(Nn2c(-c3ccccc3)nc3ccccc3c2=O)S/C1=C/c1ccccc1 [Compound III] | – | – | – | – | – | – | – | – | 0.065 µM | 0.72 µM | –
COC(=O)c1ccccc1NC(=S)N(CCN1CCCCC1)Cc1cc2cc(C)ccc2[nH]c1=O [DC27] | – | – | – | – | – | – | – | – | – | – | 2.5 to 12.9 µM
COc1cccc2c1C(=O)c1c(O)c3c(c(O)c1C2=O)C[C@@](O)(C(=O)CO)C[C@@H]3O[C@H]1C[C@H](N)[C@H](O)[C@H](C)O1 [Doxorubicin, reference compound] | – | 1100 nM | 900 ± 100 nM | 1200 ± 100 nM | 1400 ± 100 nM | 1000 ± 100 nM | – | – | – | – | –
